Each structure is given as a SMILES string.

One assay addresses human DHOD (Homo sapiens, UniProt Q02127). The assay can be described thus: Measurement of DHOD inhibitory activity (DCIP reduction, end point assay). Format: biochemical. Here is the method: The compounds of the present invention were used and measured for their DHOD inhibitory activity at concentrations of 200 nM and 1000 nM.
Reduction of DCIP was measured at 600 nm over 20 minutes.

A further assay relates to HT-29. The assay can be described thus: JFCR39 cancer cell growth inhibition test, HT-29. It counts as cell-based. The note with it: Homo sapiens; HT-29, Co (Colon).
The subject of a further assay is HCT-116. The assay can be described thus: JFCR39 cancer cell growth inhibition test, HCT-116. Format: cell-based. The note with it: Homo sapiens; HCT-116, Co (Colon).
The next assay has as its system NCI-H522. The assay can be described thus: JFCR39 cancer cell growth inhibition test, NCI-H522. Format: cell-based. Conditions: Homo sapiens; NCI-H522, Lu (Lung).
For a further assay, the system named is DMS273. The assay can be described thus: JFCR39 cancer cell growth inhibition test, DMS273. It counts as cell-based. Conditions: Homo sapiens, DMS-273; DMS273, Lu (Lung).
The next assay has as its system OVCAR-5. The assay can be described thus: JFCR39 cancer cell growth inhibition test, OVCAR-5. Conditions: Homo sapiens; OVCAR-5, Ov (Ovarian). It counts as cell-based.
The next assay deals with OVCAR-8. The assay can be described thus: JFCR39 cancer cell growth inhibition test, OVCAR-8. Format: cell-based. The note with it: Homo sapiens; OVCAR-8, Ov (Ovarian).
The subject of a further assay is DU-145. The assay can be described thus: JFCR39 cancer cell growth inhibition test, DU-145. It counts as cell-based. Conditions: Homo sapiens; DU-145, xPg (Prostate).

Sequence of human DHOD (Q02127 whole entry): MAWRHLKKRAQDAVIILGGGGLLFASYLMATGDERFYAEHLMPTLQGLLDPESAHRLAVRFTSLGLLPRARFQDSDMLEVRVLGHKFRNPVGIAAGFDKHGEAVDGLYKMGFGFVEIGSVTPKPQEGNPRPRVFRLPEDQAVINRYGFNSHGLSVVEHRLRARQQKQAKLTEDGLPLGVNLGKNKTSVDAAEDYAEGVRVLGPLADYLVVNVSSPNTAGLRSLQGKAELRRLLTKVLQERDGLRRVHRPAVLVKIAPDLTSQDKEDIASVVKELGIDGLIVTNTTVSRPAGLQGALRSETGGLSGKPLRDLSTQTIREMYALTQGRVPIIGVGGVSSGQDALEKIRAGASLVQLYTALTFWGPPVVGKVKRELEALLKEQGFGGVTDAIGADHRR

For the molecule `C/C(=C\Cc1c(O)c(Cl)c(C)c(C=O)c1O)CC/C=C(\C)[C@@H]1CC(=O)C(C)(C)O1` (racemic) [Ascofuranone, dl-5-Chloro-2,4-dihydroxy-6-methyl-3-[(2E,6E)-3-methyl-7-(3,3-dimethyl-4-oxo-2-oxacyclopentyl)-2,6-octadienyl]benzaldehyde], the inhibition (as a rule, how much of the control response was suppressed) at 0.2 µM on human DHOD (read-out: DHOD inhibition rate (%) 200 nM, 200 nM compound) stood at 73%. For the same molecule, the IC50 (as a rule, the concentration that gives 50% inhibition) at human DHOD (read-out: IC50 (nM) human DHOD (HsDHOD)) is 38 nM. The GI50 (as a rule, the concentration at which growth is held to half of that of the control) in the assay with HT-29 was found to be 6.6 µM; in the assay on HCT-116, 5.1 µM; in the assay with NCI-H522, 8.4 µM; with DMS273, 5.9 µM; with OVCAR-5, 7.6 µM; in the assay with OVCAR-8, 9.5 µM. In the assay on DU-145, this molecule had a concentration for 50% growth inhibition (GI50) of 11 µM.

These data come from patent US9737504B2, “Dihydroorotic and acid dehydrogenase inhibitor” (NAI INC., priority 2012, dated 2017).
